# Key:
# Format in all cases: cell-based
# Details in all cases: fluorescent calcium assay
# [1] = target: T1, TRPML3 (Homo sapiens, UniProt Q8TDD5); experiment: Fluorescent TRPML3 assay (performed as for TRPML1, substituting the TRPML3 subtype)
# T1 construct: expressed in transfected cells
# T1 sequence (Q8TDD5 1-553): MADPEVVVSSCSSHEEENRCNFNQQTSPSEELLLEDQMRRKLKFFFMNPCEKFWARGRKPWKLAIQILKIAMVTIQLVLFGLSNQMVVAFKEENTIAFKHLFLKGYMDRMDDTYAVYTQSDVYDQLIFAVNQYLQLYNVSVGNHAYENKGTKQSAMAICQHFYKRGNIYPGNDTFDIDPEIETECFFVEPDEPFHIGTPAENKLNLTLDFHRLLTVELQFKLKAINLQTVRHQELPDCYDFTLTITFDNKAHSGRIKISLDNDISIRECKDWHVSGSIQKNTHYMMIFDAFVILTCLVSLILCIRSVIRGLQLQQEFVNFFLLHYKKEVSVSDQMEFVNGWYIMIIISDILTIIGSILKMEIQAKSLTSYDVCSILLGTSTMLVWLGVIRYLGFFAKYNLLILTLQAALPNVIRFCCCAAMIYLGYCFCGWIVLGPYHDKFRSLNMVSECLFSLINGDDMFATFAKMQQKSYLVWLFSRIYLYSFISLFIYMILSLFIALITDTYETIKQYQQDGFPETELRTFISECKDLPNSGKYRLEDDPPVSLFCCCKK
# Procedure, shortened: (§1)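 Doxycycline-induced (0.5 ug/mL) HEK-293 Trex cells stably expressing surface-directed mutant channel were loaded with 1 micromolar Fluo4-AM, resuspended in Ringer's with 10 mM calcium and added to compound plates. Fluorescence (ex 480, em 540 nm) gave percent activity versus on-plate controls; EC50 by non-linear regression.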
# [2] = target: TRPML1 (Homo sapiens, UniProt Q9GZU1); experiment: Fluorescent TRPML1 assay (Fluo4-AM calcium fluorescence in doxycycline-induced HEK-293 Trex cells)
# Procedure, shortened: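 HEK-293 Trex cells stably expressing surface-directed mutant human TRPML1, induced with 0.5 µg/mL doxycycline overnight, were loaded with 1 µM Fluo4-AM and added to compound (6 nM–20 µM final, half-log steps, triplicate) in Ringer's with 10 mM calcium. Fluorescence ex 480/em 540; EC50 by non-linear regression versus plate controls.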
# [3] = target: T2, TRPML2 (Homo sapiens, UniProt Q8IZK6); experiment: Fluorescent TRPML2 assay (performed as for TRPML1, substituting the TRPML2 subtype)
# T2 construct: expressed in transfected cells
# T2 sequence (Q8IZK6 1-566): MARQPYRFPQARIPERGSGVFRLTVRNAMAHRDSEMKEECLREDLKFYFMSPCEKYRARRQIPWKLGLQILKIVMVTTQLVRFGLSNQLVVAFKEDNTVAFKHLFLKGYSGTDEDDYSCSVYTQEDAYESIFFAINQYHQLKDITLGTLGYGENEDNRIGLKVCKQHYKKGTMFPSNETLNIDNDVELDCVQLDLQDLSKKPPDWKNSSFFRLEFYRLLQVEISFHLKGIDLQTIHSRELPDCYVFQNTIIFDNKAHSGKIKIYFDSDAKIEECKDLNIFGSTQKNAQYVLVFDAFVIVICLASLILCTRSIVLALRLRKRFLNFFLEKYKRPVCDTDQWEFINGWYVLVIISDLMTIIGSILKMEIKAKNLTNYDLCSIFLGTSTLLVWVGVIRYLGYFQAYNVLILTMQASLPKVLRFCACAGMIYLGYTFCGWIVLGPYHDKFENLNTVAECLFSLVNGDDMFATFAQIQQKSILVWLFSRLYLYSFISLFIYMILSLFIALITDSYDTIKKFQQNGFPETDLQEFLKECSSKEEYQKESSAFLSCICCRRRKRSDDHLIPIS
# Procedure, shortened: as §1
# Sequence of TRPML1 (Q9GZU1 whole entry L15A/L16A/L577A/L578A, form open): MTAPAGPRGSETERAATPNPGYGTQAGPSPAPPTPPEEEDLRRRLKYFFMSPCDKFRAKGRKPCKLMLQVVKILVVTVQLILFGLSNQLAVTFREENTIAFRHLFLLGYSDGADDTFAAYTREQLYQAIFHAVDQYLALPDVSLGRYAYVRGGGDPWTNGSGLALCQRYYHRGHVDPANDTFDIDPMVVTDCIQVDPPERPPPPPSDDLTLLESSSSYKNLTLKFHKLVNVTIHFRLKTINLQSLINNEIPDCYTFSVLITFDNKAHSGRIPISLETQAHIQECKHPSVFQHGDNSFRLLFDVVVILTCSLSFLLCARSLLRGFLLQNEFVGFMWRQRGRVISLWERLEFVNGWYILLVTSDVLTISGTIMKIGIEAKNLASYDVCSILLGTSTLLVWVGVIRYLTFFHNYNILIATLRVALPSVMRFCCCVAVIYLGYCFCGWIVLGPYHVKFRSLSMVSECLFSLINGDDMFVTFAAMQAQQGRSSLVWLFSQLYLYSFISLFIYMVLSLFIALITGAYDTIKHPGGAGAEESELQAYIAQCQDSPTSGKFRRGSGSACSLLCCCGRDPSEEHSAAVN
SMILES,EC50 [1] [nM],EC50 [2] [nM],EC50 [3] [nM]
"CC(C)(C)OC(=O)N1CCN(c2ncnc3c2c(C2CC2)cn3-c2cc(F)c(F)c(F)c2)CC1 [Compound 234, tert-butyl 4-(5-cyclopropyl-7-(3,4,5-trifluorophenyl)-7H-pyrrolo[2,3-d]pyrimidin-4-yl)piperazine-1-carboxylate]",100 to 500,100 to 500,500 to 2000
"C[C@H]1CN(C(=O)OC(C)(C)C)CCN1c1ncnc2c1c(-c1ccccn1)cn2-c1cc(F)cc(F)c1 [Compound 235, tert-butyl-(S)-4-(7-(3,5-difluorophenyl)-5-(pyridin-2-yl)-7H-pyrrolo[2,3-d]pyrimidin-4-yl)-3-methylpiperazine-1-carboxylate]",100 to 500,100 to 500,100 to 500
"C[C@@H]1CN(c2ncnc3c2c(C2CC2)cn3-c2cc(F)cc(Cl)c2)[C@@H](C)CN1C(=O)OC(C)(C)C [Compound 236, tert-butyl (2R,5S)-4-(7-(3-chloro-5-fluorophenyl)-5-cyclopropyl-7H-pyrrolo[2,3-d]pyrimidin-4-yl)-2,5-dimethylpiperazine-1-carboxylate]",< 100,< 100,100 to 500
"C[C@@H]1CN(c2ncnc3c2c(-c2ccncc2)cn3-c2cc(F)cc(Cl)c2)CCN1C(=O)OC(C)(C)C [Compound 238, tert-butyl (R)-4-(7-(3-chloro-5-fluorophenyl)-5-(pyridin-4-yl)-7H-pyrrolo[2,3-d]pyrimidin-4-yl)-2-methylpiperazine-1-carboxylate]",100 to 500,< 100,500 to 2000
"C[C@@H]1CN(c2ncnc3c2c(C2CC2)nn3-c2cc(F)cc(F)c2)CCN1C(=O)OC(C)(C)C [Compound 239, tert-butyl (R)-4-(3-cyclopropyl-1-(3,5-difluorophenyl)-1H-pyrazolo[3,4-d]pyrimidin-4-yl)-2-methylpiperazine-1-carboxylate]",< 100,< 100,500 to 2000
"C[C@H]1CN(c2ncnc3c2c(C2CC2)nn3-c2cc(F)cc(F)c2)CCN1C(=O)OC(C)(C)C [Compound 240, tert-Butyl (S)-4-(3-cyclopropyl-1-(3,5-difluorophenyl)-1H-pyrazolo[3,4-d]pyrimidin-4-yl)-2-methylpiperazine-1-carboxylate]",100 to 500,100 to 500,500 to 2000
"C[C@H]1CN(C(=O)OC(C)(C)C)CCN1c1ncnc2c1c(-c1ccncc1)cn2-c1cc(F)cc(F)c1 [Compound 241, tert-butyl-(S)-4-(7-(3,5-difluorophenyl)-5-(pyridin-4-yl)-7H-pyrrolo[2,3-d]pyrimidin-4-yl)-3-methylpiperazine-1-carboxylate]",100 to 500,100 to 500,500 to 2000
"Cc1nccnc1-c1cn(-c2cc(F)cc(F)c2)c2ncnc(N3CCN(C(=O)OC(C)(C)C(F)(F)F)[C@H](C)C3)c12 [Compound 243, 1,1,1-trifluoro-2-methylpropan-2-yl (R)-4-(7-(3,5-difluorophenyl)-5-(3-methylpyrazin-2-yl)-7H-pyrrolo[2,3-d]pyrimidin-4-yl)-2-methylpiperazine-1-carboxylate]",100 to 500,100 to 500,500 to 2000
"C[C@@H]1CN(c2ncnc3c2c(N2CCCC2)cn3-c2cc(F)cc(F)c2)CCN1C(=O)OC(C)(C)C [Compound 245, tert-butyl (R)-4-(7-(3,5-difluorophenyl)-5-(pyrrolidin-1-yl)-7H-pyrrolo[2,3-d]pyrimidin-4-yl)-2-methylpiperazine-1-carboxylate]",100 to 500,100 to 500,500 to 2000
"Cc1nccnc1-c1cn(-c2cc(F)cc(F)c2)c2ncnc(N3CCN(C(=O)OC(C)C)[C@H](C)C3)c12 [Compound 251, isopropyl (R)-4-(7-(3,5-difluorophenyl)-5-(3-methylpyrazin-2-yl)-7H-pyrrolo[2,3-d]pyrimidin-4-yl)-2-methylpiperazine-1-carboxylate]",500 to 2000,> 2000,> 2000
"CC(C)OC(=O)N1C[C@H](C)N(c2ncnc3c2c(-c2ccccc2F)cn3-c2cnn(C)c2)C[C@H]1C [Compound 252, isopropyl (2R,5S)-4-(5-(2-fluorophenyl)-7-(1-methyl-1H-pyrazol-4-yl)-7H-pyrrolo[2,3-d]pyrimidin-4-yl)-2,5-dimethylpiperazine-1-carboxylate]",100 to 500,100 to 500,> 2000
"C[C@H]1CN(C(=O)OC(C)(C)C)CCN1c1ncnc2c1c(N1CCCC1)cn2-c1cc(F)cc(F)c1 [Compound 253, tert-butyl (S)-4-(7-(3,5-difluorophenyl)-5-(pyrrolidin-1-yl)-7H-pyrrolo[2,3-d]pyrimidin-4-yl)-3-methylpiperazine-1-carboxylate]",< 100,< 100,100 to 500

# Next, values leading:
EC50 [1] [nM],EC50 [2] [nM],EC50 [3] [nM],SMILES
100 to 500,500 to 2000,500 to 2000,"C[C@H]1CN(C(=O)OC(C)(C)C)CCN1c1ncnc2c1c(-c1cnccn1)cn2-c1cc(F)cc(F)c1 [Compound 237, tert-butyl-(S)-4-(7-(3,5-difluorophenyl)-5-(pyrazin-2-yl)-7H-pyrrolo[2,3-d]pyrimidin-4-yl)-3-methylpiperazine-1-carboxylate]"
100 to 500,100 to 500,100 to 500,"Cc1nccnc1-c1cn(-c2cc(F)cc(F)c2)c2ncnc(N3CCN(C(=O)OC(C)(C)C)[C@H](C)C3)c12 [Compound 242, tert-butyl (R)-4-(7-(3,5-difluorophenyl)-5-(3-methylpyrazin-2-yl)-7H-pyrrolo[2,3-d]pyrimidin-4-yl)-2-methylpiperazine-1-carboxylate]"
100 to 500,500 to 2000,500 to 2000,"Cc1nccnc1-c1cn(-c2cc(F)cc(F)c2)c2ncnc(N3CCN(C(=O)OC(C)(C)C)C[C@@H]3C)c12 [Compound 246, tert-butyl (S)-4-(7-(3,5-difluorophenyl)-5-(3-methylpyrazin-2-yl)-7H-pyrrolo[2,3-d]pyrimidin-4-yl)-3-methylpiperazine-1-carboxylate]"
100 to 500,500 to 2000,500 to 2000,"Cc1nccnc1-c1cn(-c2cc(F)cc(F)c2)c2ncnc(N3CCN(C(=O)OC(C)(C)C(F)(F)F)C[C@@H]3C)c12 [Compound 247, 1,1,1-trifluoro-2-methylpropan-2-yl (S)-4-(7-(3,5-difluorophenyl)-5-(3-methylpyrazin-2-yl)-7H-pyrrolo[2,3-d]pyrimidin-4-yl)-3-methylpiperazine-1-carboxylate]"
500 to 2000,500 to 2000,> 2000,"Cc1nccnc1-c1cn(-c2cc(F)cc(F)c2)c2ncnc(N3CCN(C(=O)OC(C)(C)CF)C[C@@H]3C)c12 [Compound 248, 1-fluoro-2-methylpropan-2-yl (S)-4-(7-(3,5-difluorophenyl)-5-(3-methylpyrazin-2-yl)-7H-pyrrolo[2,3-d]pyrimidin-4-yl)-3-methylpiperazine-1-carboxylate]"
500 to 2000,> 2000,> 2000,"Cc1nccnc1-c1cn(-c2cc(F)cc(F)c2)c2ncnc(N3CCN(C(=O)OC(C)C)C[C@@H]3C)c12 [Compound 249, Isopropyl (S)-4-(7-(3,5-difluorophenyl)-5-(3-methylpyrazin-2-yl)-7H-pyrrolo[2,3-d]pyrimidin-4-yl)-3-methylpiperazine-1-carboxylate]"
100 to 500,500 to 2000,> 2000,"Cc1nccnc1-c1cn(-c2cc(F)cc(F)c2)c2ncnc(N3CCN(C(=O)OC(C)(C)CF)[C@H](C)C3)c12 [Compound 250, 1-fluoro-2-methylpropan-2-yl (R)-4-(7-(3,5-difluorophenyl)-5-(3-methylpyrazin-2-yl)-7H-pyrrolo[2,3-d]pyrimidin-4-yl)-2-methylpiperazine-1-carboxylate]"

# Reference: patent US20250136606A1, “MODULATORS OF TRPML, THEIR COMPOSITIONS AND METHODS OF USE” (Caraway Therapeutics, Inc., priority 2021, published 2025)
